Test results taken from patent US6107549A, “Genetically engineered plant resistance to thiazopyr and other pyridine herbicides” (Monsanto Company, priority 1999, dated 2000).

Experiments:
[1] = system: porcine liver esterase; test: Pyridine-esterase activity assay with porcine liver esterase; type: biochemical; conditions: for esterase activity against substrate: commercially available preparations of porcine liver esterase
Description: (§1) Esterase activity assays. Esterase activity was measured in vitro by conversion of either [^14 C]thiazopyr or [^14 C]MON 14300 to their corresponding monoacid. Pyridine-esterase activity was assayed during protein purification and from tissue extracts of transgenic plants. The homogenizing buffer for plant tissues consisted of 100 mM Tris pH 8.0, 1 mM EDTA, 1 mM DTT, and 10% glycerol in water. Plant tissues (1 g/ml buffer) including leaves, seeds, flowers, seedlings, etc. were homogenized in conical centrifuge tubes using a spinning pestle at 4° C. Following centrifugation (12,000× g), the supernatant (250 μl) was assayed immediately for esterase activity by incubation with [^14 C]thiazopyr or [^14 C]MON 14300 (4 μg) in 0.1 M Tris pH 8.0 buffer (50 μl) at 37° C. The reaction was sampled (100 μL) at various times (0.5 to 100 hr) to generate a kinetic profile of monoacid formation. The reaction was stopped by addition of 1% trifluoroacetic acid in acetonitrile (v/v, 150 μl). Following centrifugation (12,000× g for 3 min), the supernatant was analyzed by HPLC/RAD (radioactivity detection) to resolve the monoacid from the parent herbicide and other metabolites. Control reactions in the absence of the esterase recovered un-reacted thiazopyr or MON 14300 for the duration of experiments. Esterase activity was also assayed during protein purification following a similar procedure except a single time-point (1-2 hrs) of incubation was selected within the linear range of reaction. In vitro assays also employed three commonly used calorimetric (p-nitrophenyl butyrate) or fluorescent (4-methyl umbelliferyl butyrate and 5-bromo-4-chloro-3-indolylacetate) substrates. These substrates are useful in rapidly and qualitatively detecting general esterase activity.
Purification of pyridine-esterases from porcine and rabbit liver. Porcine and rabbit liver esterases, obtained commercially as (NH4)2 SO4 suspensions, were desalted using a disposable SEPHADEX™ G25 size exclusion column (Pharmacia Biotech). Proteins (1 to 10 mg) were initially separated on a strong anion exchange column (MONO Q™, Pharmacia Biotech) at 4° C. The column was linearly programmed in 30 minutes from 0 to 0.4 M KCl in 10 mM Tris buffer, pH 7.4 at a flow rate of 1 m/min. Subsequently, the column was programmed from 0.4 to 1.0 M KCl in 10 min. Effluent was monitored by UV (280 nm) and fractions were collected at 1 ml intervals. Effluent fractions were assayed for protein by Coomassie dye (Bio Rad Laboratory) and for pyridine-esterase activity. Protein purity was determined by SDS-PAGE on 10 to 15% gradient gels (Pharmacia Biotech) with visualization of proteins by silver staining.
Following anion exchange chromatography, fractions with the highest purity and activity were pooled. After desalting, the pooled fractions were further separated by isoelectric focusing (IEF) chromatography on a MONO P™ column (Pharmacia Biotech) at 4° C. IEF chromotography was conducted at different pH ranges (3-9, 4-7, 5.5-6.5 or 4.5-5.5) using appropriate combinations of POLYBUFFERS™ (Pharmacia Biotech) and a flow rate of […]. Effluent fractions from IEF chromatography were analyzed for protein and pyridine-esterase activity. The protein purity of the fractions was determined by SDS-PAGE and IEF-PAGE.

[2] = biological target: T1, pyridine-esterase (Oryctolagus cuniculus, UniProt P12337, A196R/H30K); test: Esterase activity in leaf extracts from R0 tomato and tobacco plants; type: biochemical, rabbit; conditions: R0 tomato and tobacco plants expressing the 60 kD esterase
T1 construct: made in house; host or cells: transgenic tobacco (Samson) and tomato (UC82B) plants, tissue extracts
T1 sequence (P12337 19-565 H30K/A196R): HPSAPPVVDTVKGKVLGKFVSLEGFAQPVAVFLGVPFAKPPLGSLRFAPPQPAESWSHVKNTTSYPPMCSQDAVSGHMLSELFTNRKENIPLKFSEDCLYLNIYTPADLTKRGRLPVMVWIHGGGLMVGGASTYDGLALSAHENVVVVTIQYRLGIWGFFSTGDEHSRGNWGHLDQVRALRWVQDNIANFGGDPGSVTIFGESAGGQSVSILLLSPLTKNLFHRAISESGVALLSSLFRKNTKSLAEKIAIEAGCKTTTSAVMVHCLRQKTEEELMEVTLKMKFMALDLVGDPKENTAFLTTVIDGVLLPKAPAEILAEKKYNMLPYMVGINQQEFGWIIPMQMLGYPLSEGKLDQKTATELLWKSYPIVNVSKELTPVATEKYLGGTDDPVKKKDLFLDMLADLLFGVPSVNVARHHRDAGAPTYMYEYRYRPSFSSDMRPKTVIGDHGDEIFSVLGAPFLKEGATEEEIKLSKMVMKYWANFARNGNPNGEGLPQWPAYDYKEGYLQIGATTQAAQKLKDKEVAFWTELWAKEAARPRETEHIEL
Description: as §1, with “Esterase activity was also assayed during protein purification following a similar procedure except a single time-point (1-2 hrs) of incubation was selected within the linear range of reaction. In vitro assays also employed three commonly used calorimetric (p-nitrophenyl butyrate) or fluorescent (4-methyl umbelliferyl butyrate and 5-bromo-4-chloro-3-indolylacetate) substrates. These substrates are useful in rapidly and qualitatively detecting general esterase activity.” left out

[3] = biological target: T1, pyridine-esterase; type: biochemical, rabbit; conditions: for hydrolysis by pyridine-esterase (substrate specificity): tobacco line #37437 extract, FIG. 4
Description: as §1
Tissue extracts from 3 tobacco R1 seedlings were employed for further studies. Two of the lines (#37437 and #37432) expressed high levels of esterase (~0.5%) and one line (#37436) which expressed no pyridine-esterase was used as negative control. Tissue extracts were incubated with [^14 C]MON 14300 and formation of the monoacid monitored with time. […] In comparison, less that 2% monoacid was detected in line (#37436). […] First, pyridine-esterase was capable of driving the hydrolysis reaction to completion with no apparent product inhibition, and second, there was no endogenous esterase activity in tobacco which catalyzed MON 14300 hydrolysis.

[4] = system: tobacco calli; test: Herbicide toxicity to tobacco calli on selection media; type: cell-based; conditions: for callus survival: control calli, concentrations above 1 μM, after 3 weeks; for suitable selection concentration for RLE3-expressing transgenic tobacco calli: preliminary experiments
Text: The experimental procedure compared the herbicide toxicity of the pyridines upon exposure to tobacco calli that were transformed with a plasmid DNA, pMON13765 (FIG. 8) containing the RLE3 gene, and tobacco calli controls transformed with isogenic plasmid DNA without the RLE3 gene. The vectors, which also encoded NPTII for kanamycin selection, were introduced via Agrobacterium transformation. Kanamycin resistant calli were cut into pieces of 3-5 mm diameter and transferred onto selection media (Murahige and Skoog basal salt mixture in 0.9% agar) containing 0.01, 0.1, 1.0, or 10.0 μM concentration of either thiazopyr or MON 14300 (1 mM stock solution in DMSO). Plates were placed in a lighted growth chamber maintained at 22° C. […] Most control calli were dead after 3 weeks at pyridine herbicide concentrations above 1 μM. […] Preliminary experiments identified 0.1 μM 14300 or thiazopyr as a suitable selection concentration for identifying transgenic tobacco calli that are expressing the RLE3 esterase. It is believed that any member of the pyridine herbicide family that is deactivated by an esterase, and any esterase gene that can hydrolyze the methylester group of a pyridine herbicide would be able to function in this selection system.

[5] = control vector calli, concentrations above 0.1 μM, after 2-3 weeks
[6] = purified porcine esterase against thiazopyr, double reciprocal plot

COC(=O)c1c(C(F)F)nc(C(F)(F)F)c(C(=O)n2cccn2)c1CC(C)C [MON 14300] was tested, and the “rate of hydrolysis compared with thiazopyr” value ([1]; commercial porcine liver esterase) was “hydrolyzed faster than thiazopyr”, the “esterase activity against substrate” value [1] was “demonstrated activity” and the “hydrolysis by leaf extracts” value [2] was “did demonstrate the hydrolysis”. The “hydrolysis to monoacid metabolite” value ([3]; expressing lines #37432 and #37437, FIG. 3) was “efficient hydrolysis”, the “hydrolysis by pyridine-esterase (substrate specificity)” value [3] was “clearly hydrolyzed” and the monoacid formed ([3]; tobacco, seedling tissue extract, 100 h) was 90%. The callus growth ([4]; RLE3 calli, 1.0 to 10 μM) was “stunting with reduced shoot development”, the callus growth ([4]; calli expressing RLE3, 0.1 μM) was “vigorous growth and shoot development” and the callus survival [4] was “dead”. For the same compound, the callus growth [4, 5] was “little growth” and the “suitable selection concentration for RLE3-expressing transgenic tobacco calli” value [4] was 0.1 µM.

With COC(=O)c1c(C(F)F)nc(C(F)(F)F)c(C2=NCCS2)c1CC(C)C [thiazopyr] the “esterase activity against substrate” value [1] was “demonstrated activity”, the Km [1, 6] was 320 µM and the Vmax [1, 6] was 10.8 nmol/min/mg. The “hydrolysis by leaf extracts” value [2] was “did demonstrate the hydrolysis”, the “hydrolysis by pyridine-esterase (substrate specificity)” value [3] was “clearly hydrolyzed” and the callus growth ([4]; RLE3 calli, 1.0 to 10 μM) was “stunting with reduced shoot development”. For the same compound, the callus growth ([4]; calli expressing RLE3, 0.1 μM) was “vigorous growth and shoot development”, the callus survival [4] was “dead” and the callus growth [4, 5] was “little growth”. The “suitable selection concentration for RLE3-expressing transgenic tobacco calli” value [4] was 0.1 µM.
